The record followed here is ChEMBL document CHEMBL5465560, “Selectivity Literature for EUbOPEN Chemogenomic Library” (2024).

Experiment [1] deals with Sphingosine kinase 1 (Homo sapiens) (UniProt Q9NYA1). Description: Selectivity interaction (Adapta Assay) EUB0001632a SPHK1. The following applies: at 10 µM.
The target in another experiment is Insulin receptor (Homo sapiens, UniProt P06213). The experiment is described as follows: Selectivity interaction (Kinase panel (Z-LYTE Assay)) EUB0001632a INSR. The following applies: at 10 µM.
Insulin receptor, sequence (P06213 28-758 limits assumed): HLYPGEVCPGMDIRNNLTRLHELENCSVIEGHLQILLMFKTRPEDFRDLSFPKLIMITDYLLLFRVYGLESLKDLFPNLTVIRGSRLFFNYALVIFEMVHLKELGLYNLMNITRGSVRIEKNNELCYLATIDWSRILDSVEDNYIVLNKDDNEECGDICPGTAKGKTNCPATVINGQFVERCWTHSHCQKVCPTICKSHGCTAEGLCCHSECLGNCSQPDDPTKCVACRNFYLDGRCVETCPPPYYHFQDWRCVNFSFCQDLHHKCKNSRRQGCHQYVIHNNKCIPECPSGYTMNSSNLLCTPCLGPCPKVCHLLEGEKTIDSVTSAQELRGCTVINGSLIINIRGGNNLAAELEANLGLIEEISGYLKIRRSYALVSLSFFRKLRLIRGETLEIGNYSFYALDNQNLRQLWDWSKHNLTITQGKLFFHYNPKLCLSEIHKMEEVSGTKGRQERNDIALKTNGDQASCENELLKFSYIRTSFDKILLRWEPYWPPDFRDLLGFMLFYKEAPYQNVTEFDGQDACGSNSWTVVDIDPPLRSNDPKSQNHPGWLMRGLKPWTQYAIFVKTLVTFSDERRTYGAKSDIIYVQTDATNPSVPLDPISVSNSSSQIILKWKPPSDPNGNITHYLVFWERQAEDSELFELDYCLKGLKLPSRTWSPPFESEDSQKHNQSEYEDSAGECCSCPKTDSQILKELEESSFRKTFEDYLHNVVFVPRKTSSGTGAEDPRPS
Insulin receptor, sequence (P06213 763-1382 limits assumed): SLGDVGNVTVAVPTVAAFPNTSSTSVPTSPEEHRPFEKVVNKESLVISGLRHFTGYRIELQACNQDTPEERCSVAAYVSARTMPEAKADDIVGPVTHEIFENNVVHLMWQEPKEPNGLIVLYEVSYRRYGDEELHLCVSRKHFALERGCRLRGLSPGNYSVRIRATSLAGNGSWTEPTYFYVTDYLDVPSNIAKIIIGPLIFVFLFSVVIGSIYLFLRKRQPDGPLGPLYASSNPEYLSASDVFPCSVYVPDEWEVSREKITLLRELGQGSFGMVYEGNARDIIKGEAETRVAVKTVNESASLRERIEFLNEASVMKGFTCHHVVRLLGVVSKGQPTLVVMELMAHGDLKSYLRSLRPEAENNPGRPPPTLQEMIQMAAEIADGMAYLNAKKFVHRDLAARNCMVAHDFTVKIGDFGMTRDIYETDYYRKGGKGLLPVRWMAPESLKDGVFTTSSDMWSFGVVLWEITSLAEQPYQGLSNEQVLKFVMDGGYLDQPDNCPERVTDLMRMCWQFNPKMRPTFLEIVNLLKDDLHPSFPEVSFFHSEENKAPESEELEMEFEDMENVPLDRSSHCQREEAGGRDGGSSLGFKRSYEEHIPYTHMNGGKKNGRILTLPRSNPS
The target in experiment [2] is Myosin light chain kinase, smooth muscle (Homo sapiens, UniProt Q15746). Description: Selectivity interaction (KinomeScan (DiscoverX)) EUB0000595a MYLK. The conditions noted are these: at 10 µM.
In experiment [3] the target is Delta-type opioid receptor (Homo sapiens, UniProt P41143). The experiment is described as follows: Selectivity interaction (Eurofins CEREP Diversity Profile (receptors and ion channels)) EUB0000279b OPRD1. The conditions noted are these: at 10 µM.
Delta-type opioid receptor, sequence (P41143 whole entry): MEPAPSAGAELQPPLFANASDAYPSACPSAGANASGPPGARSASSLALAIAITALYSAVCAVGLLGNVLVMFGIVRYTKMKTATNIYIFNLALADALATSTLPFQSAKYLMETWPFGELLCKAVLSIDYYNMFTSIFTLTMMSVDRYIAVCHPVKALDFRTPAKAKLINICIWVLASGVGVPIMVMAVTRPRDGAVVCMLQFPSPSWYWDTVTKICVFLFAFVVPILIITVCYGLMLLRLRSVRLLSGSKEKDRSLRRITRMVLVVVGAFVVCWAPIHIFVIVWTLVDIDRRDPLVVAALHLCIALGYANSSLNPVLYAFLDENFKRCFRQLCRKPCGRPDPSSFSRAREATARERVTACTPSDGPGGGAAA
The target in experiment [4] is Mitogen-activated protein kinase 9 (Homo sapiens, UniProt P45984). The experiment is described as follows: Selectivity interaction (Kinase panel (Invitrogen)) EUB0000639a MAPK9. The following applies: at 200 nM.
Mitogen-activated protein kinase 9, sequence (P45984 whole entry, looked up): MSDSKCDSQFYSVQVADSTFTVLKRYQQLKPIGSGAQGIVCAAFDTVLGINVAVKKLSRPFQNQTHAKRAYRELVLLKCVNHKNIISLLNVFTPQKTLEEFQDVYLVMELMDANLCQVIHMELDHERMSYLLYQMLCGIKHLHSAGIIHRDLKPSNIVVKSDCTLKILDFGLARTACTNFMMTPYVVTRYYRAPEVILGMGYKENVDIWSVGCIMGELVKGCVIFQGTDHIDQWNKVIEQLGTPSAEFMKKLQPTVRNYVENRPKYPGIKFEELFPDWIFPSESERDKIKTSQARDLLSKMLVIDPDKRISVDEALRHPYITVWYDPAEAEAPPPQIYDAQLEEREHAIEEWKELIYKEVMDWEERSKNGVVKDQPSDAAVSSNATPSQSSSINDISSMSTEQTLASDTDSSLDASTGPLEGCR
Experiment [5] deals with T1, TGF-beta receptor type-1 (Homo sapiens) (UniProt P36897).
T1 sequence (whole entry): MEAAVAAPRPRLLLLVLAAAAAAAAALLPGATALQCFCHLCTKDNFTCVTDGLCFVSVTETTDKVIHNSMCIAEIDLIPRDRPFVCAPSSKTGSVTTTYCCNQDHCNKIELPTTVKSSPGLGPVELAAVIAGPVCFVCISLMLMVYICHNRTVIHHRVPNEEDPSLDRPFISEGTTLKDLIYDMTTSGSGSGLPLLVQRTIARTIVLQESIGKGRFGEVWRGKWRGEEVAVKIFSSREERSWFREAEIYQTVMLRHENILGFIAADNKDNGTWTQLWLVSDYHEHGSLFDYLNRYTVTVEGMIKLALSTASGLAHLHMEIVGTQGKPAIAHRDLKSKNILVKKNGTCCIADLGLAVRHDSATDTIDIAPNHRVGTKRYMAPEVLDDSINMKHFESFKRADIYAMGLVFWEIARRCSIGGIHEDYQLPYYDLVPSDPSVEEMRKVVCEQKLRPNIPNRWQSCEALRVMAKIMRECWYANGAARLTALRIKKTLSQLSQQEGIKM
Description: Selectivity interaction (KinomeScan (DiscoverX)) EUB0000045b TGFBR1.

Experiment [6] deals with Platelet-derived growth factor receptor alpha (Homo sapiens, UniProt P16234). The experiment is described as follows: Selectivity interaction (Kinase panel (Enzyme activity assay)) EUB0000612a PDGFRA.
Platelet-derived growth factor receptor alpha, sequence (P16234 whole entry): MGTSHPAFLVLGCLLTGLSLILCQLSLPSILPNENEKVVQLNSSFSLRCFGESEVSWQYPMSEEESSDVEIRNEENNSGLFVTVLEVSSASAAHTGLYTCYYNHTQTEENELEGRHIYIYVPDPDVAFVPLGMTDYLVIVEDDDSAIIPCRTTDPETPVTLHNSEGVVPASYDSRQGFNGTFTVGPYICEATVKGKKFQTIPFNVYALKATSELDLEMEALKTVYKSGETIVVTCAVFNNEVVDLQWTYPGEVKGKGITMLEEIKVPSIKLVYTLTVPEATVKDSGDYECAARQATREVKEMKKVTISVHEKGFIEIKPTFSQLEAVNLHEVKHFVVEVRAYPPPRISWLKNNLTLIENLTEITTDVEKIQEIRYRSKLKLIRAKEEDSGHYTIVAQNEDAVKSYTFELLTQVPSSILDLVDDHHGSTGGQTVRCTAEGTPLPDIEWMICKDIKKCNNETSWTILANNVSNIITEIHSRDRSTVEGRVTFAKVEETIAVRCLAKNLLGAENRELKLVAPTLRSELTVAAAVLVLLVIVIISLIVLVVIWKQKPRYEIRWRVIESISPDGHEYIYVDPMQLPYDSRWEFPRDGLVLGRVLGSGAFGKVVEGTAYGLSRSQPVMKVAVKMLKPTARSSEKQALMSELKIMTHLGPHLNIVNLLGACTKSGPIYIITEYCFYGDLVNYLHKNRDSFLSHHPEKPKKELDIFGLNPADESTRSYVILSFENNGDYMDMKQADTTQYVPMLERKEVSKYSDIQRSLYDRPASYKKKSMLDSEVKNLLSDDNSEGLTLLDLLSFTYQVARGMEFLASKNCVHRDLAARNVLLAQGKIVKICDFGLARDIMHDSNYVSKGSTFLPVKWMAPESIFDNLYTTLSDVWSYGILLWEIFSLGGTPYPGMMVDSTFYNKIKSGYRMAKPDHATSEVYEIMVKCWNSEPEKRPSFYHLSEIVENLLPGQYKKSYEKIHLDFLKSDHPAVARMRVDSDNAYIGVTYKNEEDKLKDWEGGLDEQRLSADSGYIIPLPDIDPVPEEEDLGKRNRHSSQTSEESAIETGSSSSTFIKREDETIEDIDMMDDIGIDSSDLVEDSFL
For experiment [7], the target named is Receptor-interacting serine/threonine-protein kinase 2 (Homo sapiens, UniProt O43353). Description: Selectivity interaction (KinomeScan (DiscoverX)) EUB0000655a RIPK2. The following applies: at 10 µM.
Receptor-interacting serine/threonine-protein kinase 2, sequence (O43353 whole entry): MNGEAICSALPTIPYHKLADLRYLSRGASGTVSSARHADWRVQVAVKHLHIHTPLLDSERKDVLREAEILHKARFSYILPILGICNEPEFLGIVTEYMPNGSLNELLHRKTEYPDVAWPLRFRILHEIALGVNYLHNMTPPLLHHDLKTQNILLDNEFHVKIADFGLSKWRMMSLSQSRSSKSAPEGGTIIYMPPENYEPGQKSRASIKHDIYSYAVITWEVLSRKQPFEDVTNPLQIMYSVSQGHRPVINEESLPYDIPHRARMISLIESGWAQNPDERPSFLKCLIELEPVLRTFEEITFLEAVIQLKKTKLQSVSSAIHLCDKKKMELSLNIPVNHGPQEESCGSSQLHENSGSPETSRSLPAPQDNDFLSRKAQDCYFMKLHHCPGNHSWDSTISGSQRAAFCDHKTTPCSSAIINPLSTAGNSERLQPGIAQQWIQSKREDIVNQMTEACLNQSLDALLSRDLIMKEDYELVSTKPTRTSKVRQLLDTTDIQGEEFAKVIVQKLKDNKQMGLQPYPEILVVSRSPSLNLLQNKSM
Experiment [8] concerns the target Bone morphogenetic protein receptor type-1B (Homo sapiens, UniProt O00238). Description: Selectivity interaction (KinomeScan (DiscoverX)) EUB0001079a BMPR1B. The following applies: at 1 µM.
Experiment [9] addresses T2, Mitogen-activated protein kinase kinase kinase 6 (Homo sapiens) (UniProt O95382).
T2 sequence (whole entry): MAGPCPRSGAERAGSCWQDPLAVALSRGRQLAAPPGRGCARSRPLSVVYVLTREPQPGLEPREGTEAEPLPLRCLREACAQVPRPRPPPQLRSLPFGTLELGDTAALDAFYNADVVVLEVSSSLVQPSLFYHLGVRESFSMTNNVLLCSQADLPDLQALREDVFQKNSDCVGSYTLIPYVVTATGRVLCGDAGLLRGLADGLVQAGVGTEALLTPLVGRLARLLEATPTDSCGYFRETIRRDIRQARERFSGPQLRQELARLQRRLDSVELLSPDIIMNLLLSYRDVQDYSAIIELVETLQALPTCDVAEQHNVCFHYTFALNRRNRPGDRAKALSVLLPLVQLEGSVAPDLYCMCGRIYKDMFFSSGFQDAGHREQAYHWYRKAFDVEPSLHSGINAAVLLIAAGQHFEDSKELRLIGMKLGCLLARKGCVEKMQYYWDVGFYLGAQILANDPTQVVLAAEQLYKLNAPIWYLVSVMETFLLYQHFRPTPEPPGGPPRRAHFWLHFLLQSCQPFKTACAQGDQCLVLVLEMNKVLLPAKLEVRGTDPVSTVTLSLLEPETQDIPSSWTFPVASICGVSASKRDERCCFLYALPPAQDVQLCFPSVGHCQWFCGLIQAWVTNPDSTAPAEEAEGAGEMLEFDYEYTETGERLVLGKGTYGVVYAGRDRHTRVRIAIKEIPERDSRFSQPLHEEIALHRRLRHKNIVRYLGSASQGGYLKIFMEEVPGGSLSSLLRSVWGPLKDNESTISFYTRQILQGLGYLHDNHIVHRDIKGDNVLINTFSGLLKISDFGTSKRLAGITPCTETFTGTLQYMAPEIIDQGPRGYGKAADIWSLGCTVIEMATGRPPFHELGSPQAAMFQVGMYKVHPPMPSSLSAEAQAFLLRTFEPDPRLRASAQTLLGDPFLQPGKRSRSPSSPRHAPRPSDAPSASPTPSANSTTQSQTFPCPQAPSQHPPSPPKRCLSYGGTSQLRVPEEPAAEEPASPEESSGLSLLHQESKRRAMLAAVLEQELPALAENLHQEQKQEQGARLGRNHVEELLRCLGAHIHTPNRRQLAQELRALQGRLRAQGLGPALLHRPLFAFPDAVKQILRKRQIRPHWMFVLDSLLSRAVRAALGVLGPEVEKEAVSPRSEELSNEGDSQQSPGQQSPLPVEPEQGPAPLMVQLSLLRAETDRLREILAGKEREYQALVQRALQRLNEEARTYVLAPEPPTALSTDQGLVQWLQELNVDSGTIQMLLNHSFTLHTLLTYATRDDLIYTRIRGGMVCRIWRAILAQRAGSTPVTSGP
The experiment is described as follows: Selectivity interaction (KinomeScan (DiscoverX)) EUB0001079a MAP3K6. The conditions noted are these: at 1 µM.

Sphingosine kinase 1 (Homo sapiens), sequence (Q9NYA1 whole entry): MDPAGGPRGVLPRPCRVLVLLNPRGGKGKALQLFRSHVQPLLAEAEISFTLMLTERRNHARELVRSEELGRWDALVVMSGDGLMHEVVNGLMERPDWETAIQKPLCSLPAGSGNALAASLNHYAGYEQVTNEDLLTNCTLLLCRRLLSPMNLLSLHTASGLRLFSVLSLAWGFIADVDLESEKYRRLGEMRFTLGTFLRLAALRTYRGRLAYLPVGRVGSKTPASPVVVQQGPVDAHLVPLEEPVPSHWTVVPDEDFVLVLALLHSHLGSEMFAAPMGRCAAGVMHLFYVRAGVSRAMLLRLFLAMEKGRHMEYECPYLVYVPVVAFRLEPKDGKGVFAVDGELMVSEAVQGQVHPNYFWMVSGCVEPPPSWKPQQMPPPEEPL
Bone morphogenetic protein receptor type-1B, sequence (O00238 whole entry): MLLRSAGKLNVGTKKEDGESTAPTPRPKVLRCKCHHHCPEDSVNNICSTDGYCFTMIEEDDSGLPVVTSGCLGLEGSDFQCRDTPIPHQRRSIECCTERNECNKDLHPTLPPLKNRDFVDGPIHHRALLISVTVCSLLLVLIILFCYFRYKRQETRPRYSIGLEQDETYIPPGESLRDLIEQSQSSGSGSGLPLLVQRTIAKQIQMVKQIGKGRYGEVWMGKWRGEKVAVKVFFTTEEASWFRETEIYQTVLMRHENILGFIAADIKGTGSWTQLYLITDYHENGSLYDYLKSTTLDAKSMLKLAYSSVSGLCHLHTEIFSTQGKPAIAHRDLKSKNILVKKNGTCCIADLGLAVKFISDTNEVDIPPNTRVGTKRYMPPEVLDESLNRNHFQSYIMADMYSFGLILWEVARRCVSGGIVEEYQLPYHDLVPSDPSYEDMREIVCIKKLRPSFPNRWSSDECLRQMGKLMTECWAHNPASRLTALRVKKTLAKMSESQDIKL

As to `Cn1cc(-n2cnc3c(NCc4nc5cc(Cl)c(Cl)cc5[nH]4)nc(N4CCOCC4)nc32)cn1`, the % of inhibition in experiment [1] is 53.7%. Moreover, the % of control at Insulin receptor is -1.61%.

On to `COCC(=O)NC/C=C/c1ccc2ncnc(Nc3ccc(Oc4ccc(C)nc4)c(C)c3)c2c1` [CP-724714], for which, in experiment [2], the % of control stood at 100%. On to `CC(=O)c1cc(-c2ccccc2OCC2CC2)c2ncccn12`, for which, in [3], the % of control was determined as 91%. `CC[C@@H]1[C@H](F)C(=O)N[C@@H]1COc1nccc2cc(C(N)=O)c(OC)cc12` [ZIMLOVISERTIB] registered a % of inhibition in experiment [4] of 2.83%. Consider `C=CC(=O)Nc1cc(-n2c(=O)ccc3cnc4ccc(-c5ccc(NS(C)(=O)=O)cc5)cc4c32)ccc1C`, for which the values for the % of control in experiment [5] (at 1 µM) and in [5] (at 10 µM) were 97% and 100%, respectively.

Turning to `CCc1cccc(CC)c1NC(=O)c1nn(C)c2c1CCc1cnc(Nc3ccc(C(=O)NC4CCN(C)CC4)cc3OC(F)(F)F)nc1-2`, the IC50 (as a rule, the concentration needed to halve the response being measured) in experiment [6] was greater than 10 µM. Regarding `CN(C)CCOc1ccc(-c2nc(-c3ccncc3)c(-c3ccc4c(c3)CC/C4=N\O)[nH]2)cc1`, the % of control in [7] came out at 14%. As for `Nc1cnc(N2CCc3cc(S(=O)(=O)Nc4c(F)cc(Cl)cc4F)cc(N4CCCC4=O)c32)nc1` [TP-020n], the % of control is 100% in [8] and 75% in experiment [9].
